Where two headings read alike, the source gives them in different places.
Legend:
[1] = system: Daudi cell line (AID positive); assay: Primary screening cell killing assay (Cell-Titer Glo, Day 7); assay type: cell-based; settings: Homo sapiens, 168 h; Daudi cells (AID positive), cell death on Day 7; read-out: AID+ EC50
Procedure: (§1) Primary screening was a phenotypic screen that utilized the synthetic lethal interaction between AID and RAD51 to identify compounds that were both potent and on target. AID expressing cells are dependent upon RAD51 for survival; inhibiting RAD51 in AID positive cells results in a cytotoxic effect.
(§2) The first step was to set up a cell killing assay in the Daudi cell line (AID positive). A 96 well u-bottom plate was prepared by writing the experiment number, plate number, date and initials in the top right corner of the plate lid. With a sterile 300 ml reservoir, and 25 ml serological pipette, evaporation buffer media was pipetted into reservoir in 25 ml increments. Using the liquid handler, 150 ul of evaporation buffer media was pipetted from reservoir into rows A and H, and Columns 1 and 12 of the 96 well u-bottom plate. Cell cultures were counted to obtain the density of cells per ml, and the culture viability. The cell density information was used to obtain 1,000,000 cells from culture using a 5 mL serological pipette into an epi tube. The cell density information from the culture was used to calculate the number of cells and volume of media needed for the assay to seed 1250 cells in 130 ul of media per available culture well in the 96 well u-bottom plate. Rows B through F were used for cells (50 wells in total), with row G left for an empty media control. The calculation was overestimated by 10 mL to account for the dead volume in the 300 ml reservoir. Once the media volume was calculated, the appropriate volume of media was pipetted in 25 mL increments into the 250 mL bottle using a 25 mL serological pipette. The 250 ml bottle was capped tightly, and placed into a 37° C. water bath for 2 minutes. While the culture media was warming, 10 mL of fresh media was pipetted from the 500 mL culture media bottle into a sterile 25 mL reservoir. Using the Eppendorf multichannel pipette, 130 ul of media was piptted from the 25 mL reservoir into row G of the 96 well u-bottom plate. Once the 250 mL bottle of media was warmed, the volume of culture needed was pipetted into the bottle, and mixed gently with a 25 mL serological pipette as to not create bubbles, and then the contents of the bottle were pipetted into a new 300 mL reservoir. Using the liquid handler, 130 ul of culture was pipetted from the 300 mL reservoir into rows B through F of the 96 well u-bottom plate. Once the culture was added, the plate was placed into a 37° C. incubator until the compound master plate was prepared for use.
(§3) Two 96 well u-bottom plates were prepared by writing the master plate name in the upper right corner of the plate lid. Labeling one DMSO master and the other Media Master. The compounds of interest were obtained from the laboratory freezer, and placed into a 25 well storage box with a lid, and set the box aside. The compounds were vortexed after thawing but before use. Using an automatic multichannel pipette, 20 ul of 100% DMSO was pipetted into wells B3-B11 through G3-G11 of the DMSO master plate. For each compound on the master plate, 50 ul of the compound were pipetted in the appropriate well of row 2 (reference plate map to determine appropriate well). A serial dilution was prepared beginning by aspirating 20 ul from row 2 and mixing with row 3, repeating until row 11 was reached. Using the liquid handler, 194 ul of Daudi media was dispensed into wells B2-B11 through G2-G11 of the Media master plate. Using the liquid handler, 6 ul from the DMSO master plate was aspirated and dispensed into the media master plate, mixing 100 ul twice.
Compounds from master plate were then added to the culture plate. The culture plates were removed from the incubator, and set inside the biosafety cabinet. Using a liquid handler, 20 ul from wells B2 to B11 through G2 to G11 of master plate were aspirated, and dispensed into wells B2 to B11 through G2 to G11 of culture plate. This set was continued with each culture plate. […]

[2] = system: WI-38 cells (AID negative); assay: Primary screening cell killing assay repeated in AID negative cells; assay type: cell-based, Human; settings: Homo sapiens; WI-38 cells (AID negative); read-out: AID− EC50
Procedure: as §1
Percent cell death and EC50 values were calculated by comparing the cell viability of the compound treated wells to the non-treated wells. Normalized RLU values were obtained by subtracting the media well values from each of the wells in the same column, and then dividing that value by the DMSO treated cells values. The percent kill was then calculated by subtracting the normalized RLU value from 1 and multiplying by 100. The average normalized percent kill value and standard error of the mean was then calculated. The kill values were then inputted into Prism with the corresponding standard errors. In Prism a non-linear regression line was plotted with the data points using a semi-log scale, and the EC50 value was calculated.
The activity of the claimed compounds was measured in a variety of cell lines with different expression levels of activation induced cytidine deaminase (AICDA). The potency assay was repeated in all of the listed cell lines and the EC50 values recorded.

[3] = Bi-directional Caco-2 permeability; assay type: in vitro ADME; settings: human; for Papp A→B / Papp B→A: Caco-2, 37 C, up to 90 minutes; for Papp A→B: apical to basolateral, read-out: AB Papp (cm/sec × 10^6); for Papp B→A: basolateral to apical, read-out: BA Papp (cm/sec × 10^6); for efflux ratio: Caco-2 efflux ratio, read-out: BA/AB Ratio
Procedure: Bi-directional Caco-2 permeability was assayed. Caco-2 cells were seeded onto permeable polycarbonate supports and allowed to differentiate for about 3 weeks prior to being used in the assays. The cells were then exposed to the compounds from either the apical or basolateral sides and incubated at 37 C for up to 90 minutes under light agitation. Compound transport was then measured using LC/MS/MS analysis at 30, 60, and 90 minutes.

[4] = Human liver microsome stability; assay type: in vitro ADME; settings: percentage of hepatic blood flow
Procedure: The stability of the claimed compounds was determined in the presences of human liver microsomes. The compounds were incubated with the microsomes at 37° C. for 45 minutes. Samples were analyzed using LC-MS/MS. Data analysis included half-life, clearance rate, and the percentage of hepatic blood flow (% QH) for each of the compounds in the different species.

[5] = system: ARPE19/HPV16 (HPV Immortalized RPE); assay: Cell line screen (potency assay); assay type: cell-based; settings: ARPE-19, AICDA expression Negative
Procedure: as §2, §3
Compounds from master plate were then added to the culture plate. The culture plates were removed from the incubator, and set inside the biosafety cabinet. Using a liquid handler, 20 ul from wells B2 to B11 through G2 to G11 of master plate were aspirated, and dispensed into wells B2 to B11 through G2 to G11 of culture plate. This set was continued with each culture plate. Once the culture plates acquired their 20 ul of compound dilutions, they were placed back into the incubator, until their reads on Day 7 of experiment. Cell death was measured on Day 7 of the experiment using Cell-Titer Glo and a Promega Plate reader. […]

[6] = Pharmacokinetic (PK) study; assay type: in vivo, Rat; settings: po @ 80 mg/kg (30% PEG400, 10% Vitamin E TPGS in water)
Procedure: PK studies in mice were used to determine the fate of the compounds in a whole organism. Rats were treated with the compounds either orally of via IV at the indicated doses and followed for up to 24 hours. Plasma samples were taken at different time points and analyzed by LC-MS.

[7] = Caco-2, apical to basolateral, read-out: AB Recovery %
[8] = Caco-2, basolateral to apical, read-out: BA Recovery %

| recovery at 90 min [3, 7] | recovery at 90 min [3, 8] | Papp A→B [3] | Papp B→A [3] | efflux ratio [3] | SMILES | EC50 [1] | EC50 [2] | Human Liver Microsome Stability % QH [4] | EC50 [5] | F (%) @ 5 mg/kg ([6]; Rat Female) | F (%) @ 5 mg/kg ([6]; Rat Male) |
| --- | --- | --- | --- | --- | --- | --- | --- | --- | --- | --- | --- |
| 65.3% | 80.7% | 8.7 ×10⁻⁶ cm/s | 12.4 ×10⁻⁶ cm/s | 1.4 | CC(C)(C)NS(=O)(=O)c1cc(NC(=O)NCc2ccccc2)ccc1-c1cnc(C2CCC(NC(=O)OC3COC3)CC2)s1 (stereo not shown) [Compound 47] | ≤ 100 nM | > 1000 nM |  |  |  |  |
|  |  |  |  |  | CC(C)(C)NS(=O)(=O)c1cc(NC(=O)OC2COC2)ccc1-c1cnc(C2CCC(NC(=O)OC3COC3)CC2)s1 (stereo not shown) [Compound 49] | ≤ 1000 nM | > 1000 nM |  |  |  |  |
| 61.9% | 86.8% | 1.3 ×10⁻⁶ cm/s | 3.5 ×10⁻⁶ cm/s | 2.7 | CC(C)OC(=O)NC1CCC(c2nc(F)c(-c3ccc(NC(=O)NCc4ccccc4)cc3S(=O)(=O)NC(C)(C)C)s2)CC1 (stereo not shown) [Compound 57] | ≤ 100 nM | > 1000 nM |  |  |  |  |
| 79.7% | 95.9% |  |  |  | CC(C)OC(=O)N[C@@H]1CCC(c2ncc(-c3ccc(NC(=O)NCc4ccccc4)cc3S(=O)(=O)NC(C)(C)C)s2)NC1 (stereo partly shown) [Compound 64] | ≤ 100 nM | > 1000 nM |  |  |  |  |
|  |  |  |  |  | CC(C)OC(=O)N[C@H]1CC[C@H](c2ncc(-c3ccc(NC(=O)NCc4ccccc4)cc3S(=O)(=O)NC(C)(C)C)s2)CC1 [Compound 66A] |  |  | 49.6% | > 10000 nM | 3.31% | 2.55% |
|  |  |  |  |  | CC(C)OC(=O)NC1CCC(c2ncc(-c3ccc(NC(=O)NCc4ccc(O)cc4)cc3S(=O)(=O)NC(C)(C)C)s2)CC1 (stereo not shown) [Compound 73] | ≤ 100 nM | > 1000 nM |  |  |  |  |
|  |  |  |  |  | CC(C)OC(=O)NC1CCC(c2ncc(-c3ccc(NC(=O)NCc4ccccc4)cc3S(=O)(=O)NC(C)(C)CO)s2)CC1 (stereo not shown) [Compound 74] | ≤ 100 nM | > 1000 nM |  |  |  |  |

From patent US11607404B2, “Combinations of RAD51 and PARP inhibitors” (Cyteir Therapeutics, Inc., priority 2019, dated 2023)
